From article PMC11359963 (Pharmaceutics, 2024) come the findings set out here.

Non-standard residues stand in square brackets, D forms with d. Residues, ends and D or L forms follow the SMILES beside them. β3hF = N[C@H](CC(=O)O)Cc1ccccc1

For one experiment, the system named is TNF-α. Description: LPS-induced TNF-α production in human whole blood cell cultures (WEHI 164.13 bioassay). The experiment is classed as cell-based. To be noted: for % of Inhibition vs. DMSO Control / TNF-α: LPS 1 µg/mL; for % of Inhibition vs. DMSO Control: TNF-α production; for TNF-α: whole blood diluted 10×, overnight, single cultures; for Suppressive Effect on TNF-α Production: summary of structure-activity relationship, LPS-induced, whole blood. Here is the method: Human whole blood was diluted 10× with RPMI-1640 medium and distributed to 24-well culture plates in 1 mL aliquots. LPS was added to the culture at a concentration of 1 µg/mL. The studied peptides were used at concentrations of 1, 10, and 100 µg/mL. After overnight incubation, the supernatants were harvested and frozen at −20 °C until cytokine determination. TNF-α activity was determined using a bioassay with the highly sensitive cell line WEHI 164.13 [29]. Briefly, cells were seeded at a concentration of 2 × 10^4 cells/well in quadruplicate. Increasing dilutions of the assayed supernatant were mixed with the target cells in the presence of actinomycin D (1 µg/mL). After 20 h of incubation, MTT was added into the wells, and the cultures were incubated for an additional 4 h. Next, a lysing buffer (20% SDS with 50% DMF, pH 4.7) was added and the OD at 550/630 nm in a spectrophotometer was measured after 24 h. The detection limit of the assay was about 2.5 pg/mL. One unit of TNF-α activity was defined as an inverse of supernatant dilution where 50% cell death took place. No statistics were applied here since the data were derived from single cultures (wells).

The subject of the next experiment is human PBMCs. Description: Proliferative response of PBMC to PHA (MTT). It is filed as cell-based. To be noted: summary of structure-activity relationship; PHA-induced PBMC proliferation, 1-100 µg/mL.
Experiment [1] concerns contact sensitivity to oxazolone mouse model. Description: Contact sensitivity to oxazolone. The experiment is classed as in vivo. Conditions: 0.1% ointment on auricles. The text has this:
(§1) C57Bl/6 female mice, 8–10 weeks old and weighing 19–22 g, were delivered by the Breeding Centre of Laboratory Animals at the Institute of Occupational Medicine, Łódź, Poland and used for this study. Mice had free access to granulated food and filtered water. The local ethics committee at the Institute of Immunology and Experimental Therapy, Wrocław, Poland, approved this study (permission #37/2012).
(§2) Blood smears were made on microscopic glasses, and the preparations were dried and stained with Giemsa and May–Grünwald dyes. The blood picture was evaluated in a light microscope at 1000× magnification in immersion oil. Up to 100 cells were counted per preparation. The results were shown as a percentage of mean values of respective cell types: mature neutrophils, band forms of neutrophils, eosinophils, lymphocytes, and monocytes.
The test was performed as described by others, with some modifications. Mice were shaved on the abdomen and after 24 h, 100 µL of 0.5% oxazolone in acetone was applied topically. […] The ear edema was measured after 24 h using a spring caliper. […]
Five to nine mice per group were used in the experiments. […] Nonparametric data were evaluated with the Kruskal–Wallis analysis of variance (ANOVA of K–W), as indicated in the text. Significance was determined at p < 0.05. […]

Experiment [2] concerns carrageenan-induced inflammation of the air pouch, mouse model. Description: Carrageenan-induced inflammation of air pouches. It is filed as in vivo. Conditions: 100 µg/mouse into air pouch; for Eosinophils in peripheral blood: control mice 9.6%; for Neutrophils in peripheral blood: control mice 37%; for Degranulated mastocytes in air pouches: control untreated air pouches 89.7%.
Excerpt: as §1, §2
Air pouches were formed by a subdermal injection into the dorsal area (under halothane anesthesia) of 5 mL of air (23 G × 11/4 needle, 5 mL syringe). On the next day, the air pouches were supplemented by 1 mL of air and injected with 0.5 mL of 1% carrageenan solution in PBS. The peptides were dissolved in DMSO (1 mg/100 µL DMSO) and supplemented with 0.9% NaCl solution to a volume of 0.2 mL. P03 and 4B8M peptides were injected into air pouches at a dose of 100 µg/mouse 30 min after carrageenan administration. BG mice received the respective amount of DMSO in 0.9% NaCl. Control mice were given only carrageenan solution plus the respective amount of DMSO. The next day, the mice were bled to perform blood smears and sacrificed. A total of 1 mL of 0.9% NaCl was injected into air pouches and the content aspirated. From this source, a total number was determined, the rest were centrifuged, and from a cell pellet, the smears were performed on microscopic glasses and stained with Giemsa and May Grunwald reagents. The cell composition of air pouch exudates was analyzed and the results were shown as a percentage (mean values of the respective cell types: neutrophils, band forms of neutrophils, eosinophils, basophils, lymphocytes, macrophages, and mastocytes).
Five to nine mice per group were used in the experiments. Results (where applicable) are presented as mean values ± standard error (SE). The Brown–Forsyth test was used to determine the homogeneity of variance between groups. When the variance was homogenous, analysis of variance (one-way ANOVA) was applied, followed by post hoc comparisons with Tukey’s test to estimate the significance of the differences between groups. Nonparametric data were evaluated with the Kruskal–Wallis analysis of variance (ANOVA of K–W), as indicated in the text. Significance was determined at p < 0.05. Statistical analysis was performed using […] 7.0 for Windows.

The conditions of experiment [3]: 100 μg/mL; unpublished.
A further experiment concerns murine leukemia L1210. Conditions: 100 μg/mL; unpublished.
Another experiment concerns mouse splenocytes. Description: ConA-induced proliferation of mouse splenocytes (unpublished data). It is filed as cell-based. Conditions: other data (unpublished).

Description for human PBMCs: PBMCs were isolated by centrifugation on a Ficoll-uropoline gradient (density 1.077 g/mL) (Lymphoprep, PAA Laboratories, Linz, Austria), at 800× g for 20 min at 4 °C. The interphase cells were then washed three times with Hanks’ medium and re-suspended in the culture medium (RPMI-1640 with 10% addition of FCS, L-glutamine, sodium pyruvate, 2-mercaptoetanol, and the antibiotics streptomycin and penicillin) at a density of 2 × 10^6 cells/mL.
The isolated PBMCs were distributed into 96-well flat-bottom plates in 100 µL aliquots (2 × 10^5 cells/well). PHA was used at a concentration of 5 µg/mL. The compounds were tested at concentrations of 1, 10, and 100 µg/mL. DMSO at appropriate dilutions served as a control solvent. After a 4-day incubation in a cell culture incubator, the proliferative response of the cells was determined by the colorimetric MTT method [28] in a Dynatech 5000 spectrophotometer. Data (OPSYS MR Dynex Technologies, Chantilly, VA, USA) are presented as a mean optical density (OD) at 550 nm, with a reference wavelength of 630 nm, from quadruplicate wells ± standard error (SE). The control cultures contained no PHA or PHA without the studied compounds.
The assay was performed by the MTT colorimetric method [29]. […] After additional overnight incubation, the OD was measured at 550/630 nm (Dynatech 5000 spectrophotometer).

For the compound “cyclo[Pro-Pro-β^3-HoPhe-D-Phe-] (head to tail) [P01]”, in the experiment with TNF-α (peptide 1 µg/mL), the “% of Inhibition vs. DMSO Control” value is 14.1% and the TNF-α is 7016 pg/mL. Moreover, in the experiment on TNF-α (peptide 10 µg/mL), the “% of Inhibition vs. DMSO Control” value turned out to be 28.1% and the TNF-α was found to be 5757 pg/mL.

As for `O=C1C[C@H](Cc2ccccc2)NC(=O)[C@@H]2CCCN2C(=O)[C@H]2CCCN2C(=O)[C@H](Cc2ccccc2)N1` [P03, cyclo-[D-Pro-Pro-β^3-HoPhe-Phe-]] (cyclo([dP]P[β3hF]F)), in the experiment with human PBMCs, the “Suppressive Effect on Cell Proliferation” value was “significant at 100 µg/mL”. In the experiment with TNF-α (peptide 1 µg/mL), the “% of Inhibition vs. DMSO Control” value came to 25.9% and the TNF-α amounted to 6052 pg/mL. In addition, in the experiment with TNF-α (peptide 10 µg/mL), the “% of Inhibition vs. DMSO Control” value was 34.8% and the TNF-α stood at 5222 pg/mL. Besides, the “Suppressive Effect on TNF-α Production” value with TNF-α was “strong”. Further, the “Percentage of all myeloid cell types in circulating blood” value in experiment [1] is on record as “significantly reduced”. Also, in experiment [2], the “Eosinophils in peripheral blood” value turned out to be 2.0%, the “Neutrophils in peripheral blood” value was 23% and the “Degranulated mastocytes in air pouches” value came out at 28.7%. For the same compound, in experiment [3], the “Inhibition of growth of A431 cells” value came to 15%. The “Inhibition of growth of L1210 cells” value in the experiment on murine leukemia L1210 was 34%.

On to “cyclo- [P02, cyclo-[D-Pro-D-Pro-β^3-HoPhe-D-Phe-]]”, for which, in the experiment with TNF-α (peptide 1 µg/mL), the “% of Inhibition vs. DMSO Control” value came out at 19.0% and the TNF-α is listed as 6614 pg/mL. In the experiment on TNF-α (peptide 10 µg/mL), the “% of Inhibition vs. DMSO Control” value was 20.7% and the TNF-α amounted to 6346 pg/mL. In addition, the “Suppressive Effect on TNF-α Production” value in the experiment on TNF-α is on record as “small”.

As for “cyclo[Pro-Pro-β^3-HoPhe-Phe-] (head to tail) [P00, cyclo-[Pro-Pro-β^3-HoPhe-Phe-], reference compound]”, in the experiment on TNF-α (peptide 1 µg/mL), the “% of Inhibition vs. DMSO Control” value is recorded as 9.8% and the TNF-α amounted to 7364 pg/mL. Besides, in the experiment with TNF-α (peptide 10 µg/mL), the “% of Inhibition vs. DMSO Control” value was determined as 10.4% and the TNF-α is 7176 pg/mL. In experiment [2], the “Eosinophils in peripheral blood” value was 3.4%, the “Neutrophils in peripheral blood” value is 31.5% and the “Degranulated mastocytes in air pouches” value was determined as 39.5%. In addition, the “Inhibition of concanavalin A (ConA)-induced proliferation of mouse splenocytes” value in the experiment with mouse splenocytes is given as “moderate inhibition”.

Consider “cyclo-[Pro-Pro-D-β^3-HoPhe-Phe-] (head to tail) [P04]”, for which the “% of Inhibition vs. DMSO Control” value stood at 33.1% in the experiment on TNF-α (peptide 1 µg/mL) and 33.8% in the experiment on TNF-α (peptide 10 µg/mL). For the same compound, the TNF-α with TNF-α (peptide 1 µg/mL) came out at 5463 pg/mL; with TNF-α (peptide 10 µg/mL), 5302 pg/mL. Moreover, the “Suppressive Effect on TNF-α Production” value with TNF-α is given as “strong”.

On to “cyclo-[D-Pro-D-Pro-D-β^3-HoPhe-D-Phe-] [P06]”, for which, in the experiment on TNF-α (peptide 1 µg/mL), the “% of Inhibition vs. DMSO Control” value is 1.6% and the TNF-α is listed as 8033 pg/mL. In the experiment on TNF-α (peptide 10 µg/mL), the “% of Inhibition vs. DMSO Control” value is listed as 4.4% and the TNF-α is reported as 7658 pg/mL. The “Suppressive Effect on TNF-α Production” value in the experiment with TNF-α is “absent”.

For “cyclo-[D-Pro-D-Pro-β^3-HoPhe-Phe-] (head to tail) [P07]”, in the experiment on TNF-α (peptide 1 µg/mL), the “% of Inhibition vs. DMSO Control” value is 21.0% and the TNF-α came to 6453 pg/mL. For the same compound, in the experiment on TNF-α (peptide 10 µg/mL), the “% of Inhibition vs. DMSO Control” value amounted to 9.0% and the TNF-α is 7284 pg/mL. For the same compound, the “Suppressive Effect on TNF-α Production” value with TNF-α is “small”.

With “cyclo-[Pro-D-Pro-β^3-HoPhe-Phe-] (head to tail) [P05]”, in the experiment with TNF-α (peptide 1 µg/mL), the “% of Inhibition vs. DMSO Control” value is recorded as 12.8% and the TNF-α is on record as 7123 pg/mL. In the experiment with TNF-α (peptide 10 µg/mL), the “% of Inhibition vs. DMSO Control” value came out at 10.0% and the TNF-α turned out to be 7203 pg/mL.
